# Results from patent US6924302B2, “Substituted triazole diamine derivatives as kinase inhibitors” (Ortho McNeil Pharmaceutical, Inc., priority 2000, dated 2005).
# What was measured:
# Settings in all cases: Tables 2a-2k
# [1] = target: T1, ERK-1 protein (Homo sapiens, UniProt P27361); test: Kinase Selectivity Assay ERK-1; type: biochemical
# T1 construct: purchased Calbiochem
# Method: Assays to test compound inhibition of other kinases were preformed using methods that measure the amount of phosphorylation of a biotinylated peptide substrate. Biotinylated peptide substrates were selected from the literature as appropriate for the enzyme being evaluated. The general procedure used to assay for kinase activity is as follows: A kinase reaction mix was prepared in 50 mM Tris-HCl pH=8, 10 mM MgCl2, 0.1 mM Na3VO4, 1 mM DTT, 10 μM ATP, 0.25-1 μM biotinylated peptide substrate, 0.2-0.82 μCuries per well ^33P-γ-ATP [2000-3000 Ci/mmol]. Assay conditions vary slightly for each protein kinase, for example, insulin receptor kinase requires 10 mM MnCl2 for activity and Calmodulin-dependent protein kinase requires calmodulin and 10 mM CaCl2. These assay conditions are known in the art. […] The plate was read on a scintillation counter to determine ^33P-γ-ATP incorporated into the immobilized peptide. […] A maximum and minimum signal for the assay was determined on each plate. The IC50 was calculated from the dose response curve of the percent inhibition of the maximum signal in the assay according to the formula [max signal—background/test compound signal—background (100)=% inhibition] by graphing the percent inhibition against the log concentration of test compound. […]
# [2] = target: T2, CDK4/D1 complex (Mus musculus, UniProt P30285); test: Kinase Selectivity Assay CDK4; type: biochemical
# T2 construct: made in house; host or cells: insect cells (baculovirus co-infection)
# T2 sequence (P30285 whole entry): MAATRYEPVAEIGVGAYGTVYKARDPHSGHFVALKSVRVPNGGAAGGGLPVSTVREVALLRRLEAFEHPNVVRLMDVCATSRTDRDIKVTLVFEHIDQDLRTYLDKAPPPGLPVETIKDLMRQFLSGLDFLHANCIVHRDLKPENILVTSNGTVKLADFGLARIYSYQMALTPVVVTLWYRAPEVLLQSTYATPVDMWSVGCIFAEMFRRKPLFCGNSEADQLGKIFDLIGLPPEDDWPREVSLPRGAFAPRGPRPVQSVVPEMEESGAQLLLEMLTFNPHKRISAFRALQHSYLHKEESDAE
# T2 sequence (P25322 whole entry partner): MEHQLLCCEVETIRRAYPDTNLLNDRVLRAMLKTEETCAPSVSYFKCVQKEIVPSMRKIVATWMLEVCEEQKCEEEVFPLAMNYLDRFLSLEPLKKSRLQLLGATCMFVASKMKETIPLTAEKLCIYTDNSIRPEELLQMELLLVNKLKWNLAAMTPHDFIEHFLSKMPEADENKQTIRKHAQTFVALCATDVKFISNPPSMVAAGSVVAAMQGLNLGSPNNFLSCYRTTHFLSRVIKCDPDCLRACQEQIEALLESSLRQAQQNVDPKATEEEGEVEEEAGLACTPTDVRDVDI
# Method: Assays to test compound inhibition of other kinases were preformed using methods that measure the amount of phosphorylation of a biotinylated peptide substrate. Biotinylated peptide substrates were selected from the literature as appropriate for the enzyme being evaluated. The general procedure used to assay for kinase activity is as follows: A kinase reaction mix was prepared in 50 mM Tris-HCl pH=8, 10 mM MgCl2, 0.1 mM Na3VO4, 1 mM DTT, 10 μM ATP, 0.25-1 μM biotinylated peptide substrate, 0.2-0.82 μCuries per well ^33P-γ-ATP [2000-3000 Ci/mmol]. Assay conditions vary slightly for each protein kinase, for example, insulin receptor kinase requires 10 mM MnCl2 for activity and Calmodulin-dependent protein kinase requires calmodulin and 10 mM CaCl2. These assay conditions are known in the art. The reaction mixture was dispensed into the wells of a streptavidin coated Flashplate and 1 μl drug stock in 100% DMSO was added to a 100 μl reaction volume resulting in a final concentration of 1% DMSO on the reaction. Enzyme was diluted in 50 mM Tris-HCl pH=8.0, 0.1% BSA and add to each well. The reaction was incubated for one hour at 30° C. in the presence of compound. After one hour the reaction mix was aspirated from the plate and the plate was washed with PBS containing 100 mM EDTA. The plate was read on a scintillation counter to determine ^33P-γ-ATP incorporated into the immobilized peptide. Test compounds were assayed in duplicate at 8 concentrations [100 uM, 10 uM, 1 uM, 100 nM, 10 nM, 1 nM, 100 pM, 10 pM]. A maximum and minimum signal for the assay was determined on each plate. The IC50 was calculated from the dose response curve of the percent inhibition of the maximum signal in the assay according to the formula [max signal—background/test compound signal—background (100)=% inhibition] by graphing the percent inhibition against the log concentration of test compound. Known inhibitor compounds appropriate for the kinase being assayed were also included on each plate. […]
# [3] = target: PKC (protein kinase-C), gamma or beta isoform; test: Kinase Selectivity Assay PKC; type: biochemical, human
# Method: Assays to test compound inhibition of other kinases were preformed using methods that measure the amount of phosphorylation of a biotinylated peptide substrate. Biotinylated peptide substrates were selected from the literature as appropriate for the enzyme being evaluated. […] Assay conditions vary slightly for each protein kinase, for example, insulin receptor kinase requires 10 mM MnCl2 for activity and Calmodulin-dependent protein kinase requires calmodulin and 10 mM CaCl2. These assay conditions are known in the art. The reaction mixture was dispensed into the wells of a streptavidin coated Flashplate and 1 μl drug stock in 100% DMSO was added to a 100 μl reaction volume resulting in a final concentration of 1% DMSO on the reaction. Enzyme was diluted in 50 mM Tris-HCl pH=8.0, 0.1% BSA and add to each well. The reaction was incubated for one hour at 30° C. in the presence of compound. After one hour the reaction mix was aspirated from the plate and the plate was washed with PBS containing 100 mM EDTA. The plate was read on a scintillation counter to determine ^33P-γ-ATP incorporated into the immobilized peptide. Test compounds were assayed in duplicate at 8 concentrations [100 uM, 10 uM, 1 uM, 100 nM, 10 nM, 1 nM, 100 pM, 10 pM]. A maximum and minimum signal for the assay was determined on each plate. The IC50 was calculated from the dose response curve of the percent inhibition of the maximum signal in the assay according to the formula [max signal—background/test compound signal—background (100)=% inhibition] by graphing the percent inhibition against the log concentration of test compound. Known inhibitor compounds appropriate for the kinase being assayed were also included on each plate.
# CDK2 in complex with cyclin A is commercially available (Upstate Biotech, Lake Placid, N.Y.). […]
# T1 sequence (P27361 whole entry, species assumed): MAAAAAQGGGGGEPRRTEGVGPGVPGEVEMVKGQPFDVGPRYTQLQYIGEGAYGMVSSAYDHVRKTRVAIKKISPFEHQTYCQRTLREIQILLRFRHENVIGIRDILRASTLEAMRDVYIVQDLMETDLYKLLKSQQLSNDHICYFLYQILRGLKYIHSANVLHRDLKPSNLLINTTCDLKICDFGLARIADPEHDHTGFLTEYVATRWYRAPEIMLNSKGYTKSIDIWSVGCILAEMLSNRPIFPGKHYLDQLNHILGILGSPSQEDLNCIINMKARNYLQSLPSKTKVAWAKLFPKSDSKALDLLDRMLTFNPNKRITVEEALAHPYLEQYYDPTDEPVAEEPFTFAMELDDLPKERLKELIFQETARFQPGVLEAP
Structure (SMILES),IC50 [2] [nM],further results
"Nc1nc(Nc2ccc(S(N)(=O)=O)cc2)nn1C(=O)c1cccs1 [Cpd 14, 4-[[5-amino-1-(2-thienylcarbonyl)-1H-1,2,4-triazol-3-yl]amino]-benzenesulfonamide]",–,IC50 [1]: > 100000 nM
"Cc1ccc(F)c(C(=O)n2nc(Nc3ccc(S(N)(=O)=O)cc3)nc2N)c1Cl [Cpd 69, 4-[[5-amino-1-(2-chloro-6-fluoro-3-methylbenzoyl)-1H-1,2,4-triazol-3-yl]amino]-benzenesulfonamide]",187,–
"Nc1nc(Nc2ccc(S(N)(=O)=O)cc2)nn1C(=O)c1c(F)cccc1Cl [Cpd 70, 4-[[5-amino-1-(2-chloro-6-fluorobenzoyl)-1H-1,2,4-triazol-3-yl]amino]-benzenesulfonamide]",167,–
"CN1CCN(c2ccc(Nc3nc(N)n(C(=O)c4c(F)cccc4F)n3)cc2)CC1 [Cpd 71, 1-(2,6-difluorobenzoyl)-N^3-[4-(4-methyl-1-piperazinyl)phenyl]-1H-1,2,4-triazole-3,5-diamine]",129,–
"Cc1ccsc1C(=O)n1nc(Nc2ccc(N3CCNC3=O)cc2)nc1N [Cpd 113, 1-[4-[[5-amino-1-[(3-methyl-2-thienyl)carbonyl]-1H-1,2,4-triazol-3-yl]amino]phenyl]-2-imidazolidinone]",–,IC50 [3]: > 100000 nM
